Results reported in the supplement of paper PMC4862054.

tested on: BT-474; assay: normalised response (% of control), CellTox Green; higher = less cell death (100 = DMSO, 0 = benzethonium chloride kill control); conditions: incubation time: 72 h
Method in brief: (§1)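 Normalised signals at single concentrations make up the values. They come from breast cancer cell lines seeded (20 µl suspension) into 384-well plates with compound at 5 concentrations in 10-fold steps over a compound-specific 10,000-fold range, incubated 72 h, and read for CellTox Green fluorescence then CellTiter-Glo luminescence. Each plate was normalised to 0.1 % DMSO (100) and a positive kill control (0).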

| Compound | normalised response |
| --- | --- |
| COc1cccc2c1C(=O)c1c(O)c3c(c(O)c1C2=O)C[C@@](O)(C(C)=O)C[C@@H]3O[C@H]1C[C@H](N)[C@H](O)[C@H](C)O1 [Daunorubicin] (1000 nM) | 101% |
| Cn1c(=O)c(F)c(Nc2ccc(I)cc2F)c2c(=O)n(C[C@@H](O)CO)cnc21 [TAK-733] (100 nM) | 103% |
| C[C@@H]1C=C2C(=O)O[C@@H]3CC[C@H](C1)[C@]23O [Galiellalactone] (50000 nM) | 102% |
| C[C@@H]1C=C2C(=O)O[C@@H]3CC[C@H](C1)[C@]23O [Galiellalactone] (5000 nM) | 100% |
| COc1ccc(C2=N[C@@H](c3ccc(Cl)cc3)[C@@H](c3ccc(Cl)cc3)N2C(=O)N2CCNC(=O)C2)c(OC(C)C)c1 [Nutlin-3] (1000 nM) | 100% |
| COC1=CC(c2cc3ccccc3[nH]2)=N/C1=C\c1[nH]c(C)cc1C [Obatoclax] (10000 nM) | 94.9% |
| CN1CCN(c2ccc3nc(-c4c(N)c5c(F)cccc5[nH]c4=O)[nH]c3c2)CC1 [Dovitinib] (10000 nM) | 99.9% |
| COc1ccc(C2=N[C@@H](c3ccc(Cl)cc3)[C@@H](c3ccc(Cl)cc3)N2C(=O)N2CCNC(=O)C2)c(OC(C)C)c1 [Nutlin-3] (10000 nM) | 97.6% |
| COC1=C2C[C@@H](C)C[C@H](OC)[C@H](O)[C@@H](C)/C=C(\C)[C@H](OC(N)=O)[C@@H](OC)/C=C\C=C(/C)C(=O)NC(=CC1=O)C2=O [Geldanamycin] (1000 nM) | 95% |
| CC(C)(C)c1cc(NC(=O)Nc2ccc(-c3cn4c(n3)sc3cc(OCCN5CCOCC5)ccc34)cc2)no1 [Quizartinib] (1000 nM) | 101% |
| COc1cccc2c1C(=O)c1c(O)c3c(c(O)c1C2=O)C[C@@](O)(C(C)=O)C[C@@H]3O[C@H]1C[C@H](N)[C@H](O)[C@H](C)O1 [Daunorubicin] (100 nM) | 99.5% |
| O=c1[nH]cc(F)c(=O)[nH]1 [Fluorouracil] (10000 nM) | 105% |
| O=C(c1ccc(OCCN2CCCCC2)cc1)c1c(-c2ccc(O)cc2)sc2cc(O)ccc12 [Raloxifene] (10000 nM) | 95.4% |
| CC(C)(C)c1cc(NC(=O)Nc2ccc(-c3cn4c(n3)sc3cc(OCCN5CCOCC5)ccc34)cc2)no1 [Quizartinib] (100 nM) | 100% |
| CCS(=O)(=O)c1cccc(-c2cc(C(=O)NC3CCN(C)CC3)c(C)c3[nH]c4ncc(C)cc4c23)c1 [TAK-901] (100 nM) | 101% |
| CS(=O)(=O)OCCCCOS(C)(=O)=O [Busulfan] (100000 nM) | 100% |
| O=c1[nH]c(=O)n([C@H]2C[C@H](O)[C@@H](CO)O2)cc1F [Floxuridine] (10000 nM) | 104% |
| Cn1cnc2c(F)c(Nc3ccc(Br)cc3F)c(C(=O)NOCCO)cc21 [MEK-162] (1000 nM) | 101% |
| O=C(c1ccc(OCCN2CCCCC2)cc1)c1c(-c2ccc(O)cc2)sc2cc(O)ccc12 [Raloxifene] (1000 nM) | 97% |
| O=c1[nH]c(=O)n([C@H]2C[C@H](O)[C@@H](CO)O2)cc1F [Floxuridine] (1000 nM) | 102% |
| CCCC(CCC)C(=O)O [Valproic acid] (10000 nM) | 85% |
| CS(=O)(=O)CCNCc1ccc(-c2ccc3ncnc(Nc4ccc(OCc5cccc(F)c5)c(Cl)c4)c3c2)o1 [Lapatinib] (1000 nM) | 76.4% |
| COC1=CC(c2cc3ccccc3[nH]2)=N/C1=C\c1[nH]c(C)cc1C [Obatoclax] (1000 nM) | 97.3% |

tested on: HCC1143; assay: as above; conditions: incubation time: 72 h
Method in brief: as §1

| Compound | normalised response |
| --- | --- |
| COc1cccc2c1C(=O)c1c(O)c3c(c(O)c1C2=O)C[C@@](O)(C(C)=O)C[C@@H]3O[C@H]1C[C@H](N)[C@H](O)[C@H](C)O1 [Daunorubicin] (1000 nM) | 100% |
| Cn1c(=O)c(F)c(Nc2ccc(I)cc2F)c2c(=O)n(C[C@@H](O)CO)cnc21 [TAK-733] (100 nM) | 124% |
| C[C@@H]1C=C2C(=O)O[C@@H]3CC[C@H](C1)[C@]23O [Galiellalactone] (50000 nM) | 112% |
| C[C@@H]1C=C2C(=O)O[C@@H]3CC[C@H](C1)[C@]23O [Galiellalactone] (5000 nM) | 105% |
| COc1ccc(C2=N[C@@H](c3ccc(Cl)cc3)[C@@H](c3ccc(Cl)cc3)N2C(=O)N2CCNC(=O)C2)c(OC(C)C)c1 [Nutlin-3] (1000 nM) | 94.2% |
| COC1=CC(c2cc3ccccc3[nH]2)=N/C1=C\c1[nH]c(C)cc1C [Obatoclax] (10000 nM) | 91.9% |
| CN1CCN(c2ccc3nc(-c4c(N)c5c(F)cccc5[nH]c4=O)[nH]c3c2)CC1 [Dovitinib] (10000 nM) | 111% |
| COc1ccc(C2=N[C@@H](c3ccc(Cl)cc3)[C@@H](c3ccc(Cl)cc3)N2C(=O)N2CCNC(=O)C2)c(OC(C)C)c1 [Nutlin-3] (10000 nM) | 105% |
| COC1=C2C[C@@H](C)C[C@H](OC)[C@H](O)[C@@H](C)/C=C(\C)[C@H](OC(N)=O)[C@@H](OC)/C=C\C=C(/C)C(=O)NC(=CC1=O)C2=O [Geldanamycin] (1000 nM) | 102% |
| CC(C)(C)c1cc(NC(=O)Nc2ccc(-c3cn4c(n3)sc3cc(OCCN5CCOCC5)ccc34)cc2)no1 [Quizartinib] (1000 nM) | 132% |
| COc1cccc2c1C(=O)c1c(O)c3c(c(O)c1C2=O)C[C@@](O)(C(C)=O)C[C@@H]3O[C@H]1C[C@H](N)[C@H](O)[C@H](C)O1 [Daunorubicin] (100 nM) | 75.9% |
| O=c1[nH]cc(F)c(=O)[nH]1 [Fluorouracil] (10000 nM) | 103% |
| O=C(c1ccc(OCCN2CCCCC2)cc1)c1c(-c2ccc(O)cc2)sc2cc(O)ccc12 [Raloxifene] (10000 nM) | 118% |
| CC(C)(C)c1cc(NC(=O)Nc2ccc(-c3cn4c(n3)sc3cc(OCCN5CCOCC5)ccc34)cc2)no1 [Quizartinib] (100 nM) | 98.3% |
| CCS(=O)(=O)c1cccc(-c2cc(C(=O)NC3CCN(C)CC3)c(C)c3[nH]c4ncc(C)cc4c23)c1 [TAK-901] (100 nM) | 118% |
| CS(=O)(=O)OCCCCOS(C)(=O)=O [Busulfan] (100000 nM) | 94.9% |
| O=c1[nH]c(=O)n([C@H]2C[C@H](O)[C@@H](CO)O2)cc1F [Floxuridine] (10000 nM) | 103% |
| Cn1cnc2c(F)c(Nc3ccc(Br)cc3F)c(C(=O)NOCCO)cc21 [MEK-162] (1000 nM) | 94.5% |
| O=C(c1ccc(OCCN2CCCCC2)cc1)c1c(-c2ccc(O)cc2)sc2cc(O)ccc12 [Raloxifene] (1000 nM) | 119% |
| O=c1[nH]c(=O)n([C@H]2C[C@H](O)[C@@H](CO)O2)cc1F [Floxuridine] (1000 nM) | 122% |
| CCCC(CCC)C(=O)O [Valproic acid] (10000 nM) | 94.8% |
| CS(=O)(=O)CCNCc1ccc(-c2ccc3ncnc(Nc4ccc(OCc5cccc(F)c5)c(Cl)c4)c3c2)o1 [Lapatinib] (1000 nM) | 99% |
| COC1=CC(c2cc3ccccc3[nH]2)=N/C1=C\c1[nH]c(C)cc1C [Obatoclax] (1000 nM) | 105% |

tested on: BT-549; assay: as above; conditions: incubation time: 72 h
Method in brief: as §1

| Compound | normalised response |
| --- | --- |
| COc1cccc2c1C(=O)c1c(O)c3c(c(O)c1C2=O)C[C@@](O)(C(C)=O)C[C@@H]3O[C@H]1C[C@H](N)[C@H](O)[C@H](C)O1 [Daunorubicin] (1000 nM) | 145% |
| Cn1c(=O)c(F)c(Nc2ccc(I)cc2F)c2c(=O)n(C[C@@H](O)CO)cnc21 [TAK-733] (100 nM) | 89.6% |
